Measured values: US20100267561A1, “HERBICIDAL PYRIDAZINONE DERIVATIVES” (priority 2007, published 2010)

Experiments:
Assay in all cases: Test E pre-/postemergence plant response
Assay type in all cases: in vivo
[1] = system: Italian ryegrass (Lolium multiflorum); details: scale 0 to 100
Method in brief: (§1)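 Pre/post herbicide screen; formulation: non-phytotoxic solvent mix + surfactant. Post timing 1–4 leaves (2–18 cm ht). Greenhouse 14–21 d; visual 0 (none) to 100 (complete control) vs controls.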

[2] = system: purple nutsedge (Cyperus rotundus); details: scale 0 to 100
Method in brief: as §1

[3] = system: common mallow (Malva sylvestris); details: scale 0 to 100
Method in brief: as §1

[4] = system: dallisgrass (Paspalum dilatatum); details: scale 0 to 100
Method in brief: as §1

[5] = system: guineagrass (Panicum maximum); details: scale 0 to 100
Method in brief: as §1

[6] = system: common groundsel (Senecio vulgaris); details: scale 0 to 100
Method in brief: as §1

[7] = system: naked crabgrass (Digitaria nuda); details: scale 0 to 100
Method in brief: as §1

[8] = system: itchgrass (Rottboellia cochinchinensis); details: scale 0 to 100
Method in brief: as §1

[9] = system: common purslane (Portulaca oleracea); details: scale 0 to 100
Method in brief: as §1

[10] = system: surinam grass (Brachiaria decumbens); details: scale 0 to 100
Method in brief: as §1

[11] = system: barnyardgrass (Echinochloa crus-galli); details: scale 0 to 100
Method in brief: as §1

[12] = system: annual bluegrass (Poa annua); details: scale 0 to 100
Method in brief: as §1

[13] = system: prickly sida (Sida spinosa); details: scale 0 to 100
Method in brief: as §1

[14] = system: green foxtail (Setaria viridis); details: scale 0 to 100
Method in brief: as §1

kochia (Kochia scoparia) = details: Preemergence, scale 0 to 100
Method in brief: as §1

[15] = system: Russian thistle (Salsola kali); details: Preemergence, scale 0 to 100
Method in brief: as §1

[16] = system: southern (S.) sandbur (Cenchrus echinatus); details: scale 0 to 100
Method in brief: as §1

[17] = system: johnsongrass (Sorghum halepense); details: scale 0 to 100
Method in brief: as §1

Structure (SMILES): CCCc1cc(-c2ccc(Cl)cc2)nn1-c1c(O)cnn(C)c1=O [Compound 43]
- Plant response rating, Ryegrass, Italian ([1]; 16 g ai/ha, Preemergence): 90
- Plant response rating, Ryegrass, Italian ([1]; 31 g ai/ha, Preemergence): 90
- Plant response rating, Ryegrass, Italian ([1]; 62 g ai/ha, Preemergence): 90
- Plant response rating, Ryegrass, Italian ([1]; Postemergence, 8 g ai/ha): 50
- Plant response rating, Ryegrass, Italian ([1]; Postemergence, 16 g ai/ha): 80
- Plant response rating, Ryegrass, Italian ([1]; Postemergence, 31 g ai/ha): 100
- Plant response rating, Ryegrass, Italian ([1]; Postemergence, 62 g ai/ha): 100
- Plant response rating, Nutsedge, Purple ([2]; 16 g ai/ha, Preemergence): 0
- Plant response rating, Nutsedge, Purple ([2]; 31 g ai/ha, Preemergence): 0
- Plant response rating, Nutsedge, Purple ([2]; 62 g ai/ha, Preemergence): 75
- Plant response rating, Nutsedge, Purple ([2]; Postemergence, 8 g ai/ha): 0
- Plant response rating, Nutsedge, Purple ([2]; Postemergence, 16 g ai/ha): 0
- Plant response rating, Nutsedge, Purple ([2]; Postemergence, 31 g ai/ha): 0
- Plant response rating, Nutsedge, Purple ([2]; Postemergence, 62 g ai/ha): 0
- Plant response rating, Mallow ([3]; 16 g ai/ha, Preemergence): 0
- Plant response rating, Mallow ([3]; 31 g ai/ha, Preemergence): 0
- Plant response rating, Mallow ([3]; 62 g ai/ha, Preemergence): 0
- Plant response rating, Mallow ([3]; Postemergence, 8 g ai/ha): 0
- Plant response rating, Mallow ([3]; Postemergence, 16 g ai/ha): 0
- Plant response rating, Mallow ([3]; Postemergence, 31 g ai/ha): 0
- Plant response rating, Mallow ([3]; Postemergence, 62 g ai/ha): 0
- Plant response rating, Dallisgrass ([4]; 16 g ai/ha, Preemergence): 40
- Plant response rating, Dallisgrass ([4]; 31 g ai/ha, Preemergence): 80
- Plant response rating, Dallisgrass ([4]; 62 g ai/ha, Preemergence): 90
- Plant response rating, Dallisgrass ([4]; Postemergence, 8 g ai/ha): 0
- Plant response rating, Dallisgrass ([4]; Postemergence, 31 g ai/ha): 20
- Plant response rating, Dallisgrass ([4]; Postemergence, 62 g ai/ha): 50
- Plant response rating, Guineagrass ([5]; 16 g ai/ha, Preemergence): 95
- Plant response rating, Guineagrass ([5]; 31 g ai/ha, Preemergence): 100
- Plant response rating, Guineagrass ([5]; 62 g ai/ha, Preemergence): 100
- Plant response rating, Guineagrass ([5]; Postemergence, 8 g ai/ha): 100
- Plant response rating, Guineagrass ([5]; Postemergence, 16 g ai/ha): 100
- Plant response rating, Guineagrass ([5]; Postemergence, 31 g ai/ha): 100
- Plant response rating, Guineagrass ([5]; Postemergence, 62 g ai/ha): 100
- Plant response rating, Groundsel ([6]; 16 g ai/ha, Preemergence): 0
- Plant response rating, Groundsel ([6]; 31 g ai/ha, Preemergence): 0
- Plant response rating, Groundsel ([6]; 62 g ai/ha, Preemergence): 0
- Plant response rating, Groundsel ([6]; Postemergence, 8 g ai/ha): 0
- Plant response rating, Groundsel ([6]; Postemergence, 16 g ai/ha): 0
- Plant response rating, Groundsel ([6]; Postemergence, 31 g ai/ha): 0
- Plant response rating, Groundsel ([6]; Postemergence, 62 g ai/ha): 0
- Plant response rating, Crabgrass, Naked ([7]; 16 g ai/ha, Preemergence): 35
- Plant response rating, Crabgrass, Naked ([7]; 31 g ai/ha, Preemergence): 35
- Plant response rating, Crabgrass, Naked ([7]; 62 g ai/ha, Preemergence): 75
- Plant response rating, Crabgrass, Naked ([7]; Postemergence, 8 g ai/ha): 65
- Plant response rating, Crabgrass, Naked ([7]; Postemergence, 16 g ai/ha): 65
- Plant response rating, Crabgrass, Naked ([7]; Postemergence, 62 g ai/ha): 100
- Plant response rating, Itchgrass ([8]; 16 g ai/ha, Preemergence): 35
- Plant response rating, Itchgrass ([8]; 31 g ai/ha, Preemergence): 50
- Plant response rating, Itchgrass ([8]; 62 g ai/ha, Preemergence): 85
- Plant response rating, Itchgrass ([8]; Postemergence, 8 g ai/ha): 20
- Plant response rating, Itchgrass ([8]; Postemergence, 31 g ai/ha): 20
- Plant response rating, Itchgrass ([8]; Postemergence, 62 g ai/ha): 75
- Plant response rating, Purslane ([9]; 16 g ai/ha, Preemergence): 0
- Plant response rating, Purslane ([9]; 31 g ai/ha, Preemergence): 0
- Plant response rating, Purslane ([9]; 62 g ai/ha, Preemergence): 0
- Plant response rating, Purslane ([9]; Postemergence, 8 g ai/ha): 0
- Plant response rating, Purslane ([9]; Postemergence, 16 g ai/ha): 0
- Plant response rating, Purslane ([9]; Postemergence, 62 g ai/ha): 0
- Plant response rating, Surinam Grass ([10]; 16 g ai/ha, Preemergence): 50
- Plant response rating, Surinam Grass ([10]; 31 g ai/ha, Preemergence): 70
- Plant response rating, Surinam Grass ([10]; 62 g ai/ha, Preemergence): 100
- Plant response rating, Surinam Grass ([10]; Postemergence, 8 g ai/ha): 95
- Plant response rating, Surinam Grass ([10]; Postemergence, 16 g ai/ha): 98
- Plant response rating, Surinam Grass ([10]; Postemergence, 31 g ai/ha): 98
- Plant response rating, Surinam Grass ([10]; Postemergence, 62 g ai/ha): 98
- Plant response rating, Barnyardgrass ([11]; 16 g ai/ha, Preemergence): 50
- Plant response rating, Barnyardgrass ([11]; 31 g ai/ha, Preemergence): 100
- Plant response rating, Barnyardgrass ([11]; 62 g ai/ha, Preemergence): 100
- Plant response rating, Barnyardgrass ([11]; Postemergence, 8 g ai/ha): 100
- Plant response rating, Barnyardgrass ([11]; Postemergence, 16 g ai/ha): 100
- Plant response rating, Barnyardgrass ([11]; Postemergence, 31 g ai/ha): 100
- Plant response rating, Barnyardgrass ([11]; Postemergence, 62 g ai/ha): 100
- Plant response rating, Bluegrass ([12]; 16 g ai/ha, Preemergence): 0
- Plant response rating, Bluegrass ([12]; 31 g ai/ha, Preemergence): 0
- Plant response rating, Bluegrass ([12]; 62 g ai/ha, Preemergence): 0
- Plant response rating, Bluegrass ([12]; Postemergence, 8 g ai/ha): 0
- Plant response rating, Bluegrass ([12]; Postemergence, 16 g ai/ha): 0
- Plant response rating, Bluegrass ([12]; Postemergence, 31 g ai/ha): 0
- Plant response rating, Bluegrass ([12]; Postemergence, 62 g ai/ha): 0
- Plant response rating, Prickly Sida ([13]; 16 g ai/ha, Preemergence): 0
- Plant response rating, Prickly Sida ([13]; 31 g ai/ha, Preemergence): 0
- Plant response rating, Prickly Sida ([13]; 62 g ai/ha, Preemergence): 0
- Plant response rating, Prickly Sida ([13]; Postemergence, 8 g ai/ha): 0
- Plant response rating, Prickly Sida ([13]; Postemergence, 16 g ai/ha): 0
- Plant response rating, Prickly Sida ([13]; Postemergence, 31 g ai/ha): 0
- Plant response rating, Prickly Sida ([13]; Postemergence, 62 g ai/ha): 0
- Plant response rating, Foxtail, Green ([14]; 16 g ai/ha, Preemergence): 25
- Plant response rating, Foxtail, Green ([14]; 31 g ai/ha, Preemergence): 85
- Plant response rating, Foxtail, Green ([14]; 62 g ai/ha, Preemergence): 100
- Plant response rating, Foxtail, Green ([14]; Postemergence, 8 g ai/ha): 75
- Plant response rating, Foxtail, Green ([14]; Postemergence, 16 g ai/ha): 80
- Plant response rating, Foxtail, Green ([14]; Postemergence, 31 g ai/ha): 80
- Plant response rating, Foxtail, Green ([14]; Postemergence, 62 g ai/ha): 98
- Plant response rating, Kochia (kochia (Kochia scoparia); 16 g ai/ha): 0
- Plant response rating, Kochia (kochia (Kochia scoparia); 31 g ai/ha): 0
- Plant response rating, Kochia (kochia (Kochia scoparia); 62 g ai/ha): 0
- Plant response rating, Thistle, Russian ([15]; 16 g ai/ha): 0
- Plant response rating, Thistle, Russian ([15]; 31 g ai/ha): 0
- Plant response rating, Thistle, Russian ([15]; 62 g ai/ha): 0
- Plant response rating, Sandbur, S. ([16]; 16 g ai/ha, Preemergence): 60
- Plant response rating, Sandbur, S. ([16]; 31 g ai/ha, Preemergence): 75
- Plant response rating, Sandbur, S. ([16]; 62 g ai/ha, Preemergence): 98
- Plant response rating, Sandbur, S. ([16]; Postemergence, 8 g ai/ha): 80
- Plant response rating, Sandbur, S. ([16]; Postemergence, 16 g ai/ha): 95
- Plant response rating, Sandbur, S. ([16]; Postemergence, 31 g ai/ha): 98
- Plant response rating, Sandbur, S. ([16]; Postemergence, 62 g ai/ha): 100
- Plant response rating, Johnsongrass ([17]; 16 g ai/ha, Preemergence): 0
- Plant response rating, Johnsongrass ([17]; 31 g ai/ha, Preemergence): 50
- Plant response rating, Johnsongrass ([17]; 62 g ai/ha, Preemergence): 60
- Plant response rating, Johnsongrass ([17]; Postemergence, 8 g ai/ha): 15
- Plant response rating, Johnsongrass ([17]; Postemergence, 16 g ai/ha): 25
- Plant response rating, Johnsongrass ([17]; Postemergence, 31 g ai/ha): 65
